According to patent publication US20250213649A1, “PEPTIDE HAVING ANTI-INFLAMMATORY AND ANTI-FIBROTIC ACTIVITIES AND USE THEREOF” (CAREGEN CO., LTD., priority 2022, published 2025):

Key:
MRC-5 cells [1] = test: ELISA of LPS-induced IL-6 and IL-8, MRC-5 cells; assay type: cell-based; conditions: 5 μg/ml LPS, peptide 10, 50, 100, 500 μM, 72 hours, culture supernatant (FIG. 5a, 5b)
Experimental: MRC-5 cells (lung fibroblast cells) were seeded at 2×10^5 cells/well in a 12-well plate and used in the experiment. After culturing for 1 day with a culture medium containing 10% FBS, the culture medium was replaced with a culture medium without containing FBS to induce starvation for 4 hours. Cells of a normal group without being treated with any substances, a group treated with 5 μg/ml of LPS (Sigma Aldrich) (negative control group), groups treated with 5 μg/ml of LPS and the peptide of Production Example 1 (10, 50, 100, 500 μM), and a group treated with 5 μg/ml of LPS and 10μM of Dexamethasone (DEX) (positive control group) were treated with active substances and drugs respectively and then cultured for 72 hours. After cell culture, the supernatant obtained by centrifuging the culture solution at 4° C. and 3,000 rpm for 10 minutes was subjected to ELISA analysis using an IL-6 Quantikine ELISA Kit (R&D systems) and an IL-8 Quantikine ELISA kit (R&D systems) according to the method of use in the kit instructions, and then the absorbance was measured at 450 nm using a microplate reader.

BALB/c mice = test: LPS-induced acute lung inflammation model, cell counts in bronchoalveolar lavage fluid; assay type: in vivo; conditions: BALB/c female mice, LPS 10 μg intranasal, peptide 0.5 mg, 1 mg intranasal 1 hour after LPS, 24 hours (FIG. 10a, 10b)
Experimental: BALB/c mice (Female/7W) were used in animal experiments, and an acute lung inflammation model was established by injection of LPS. As shown in [Table 5] below, 7-week-old BALB/c female mice were divided into 5 groups of 5 mice each, and then the experiment was carried out. On the 1st day, LPS (10 μg/50 μl/mouse) was administered intranasally to the G2 to G5 groups. 1 hour after LPS administration, the G3 and G4 groups were subjected to intranasal administration with the peptide of Production Example 1 (0.5 mg, 1 mg), and the G5 positive control group was subjected to intraperitoneal administration with Dexamethasone (100 μg). 24 hours after the administration of the active substance and the drug, the mice were sacrificed to obtain the bronchoalveolar lavage fluid and the lung tissue, which were used in the next analysis.
After anesthetizing the mouse, the treatment area was disinfected with 70% ethanol. […] The separated cells were resuspended in 0.5 ml of PBS, subsequently diluted with trypan blue solution at a 1:1 ratio, and then the total number of cells was counted using a hematocytometer. […] After staining, cells were observed and counted through a microscope, and then the number of immune cells with respect to the total number of cells was calculated to show the results as a graph.

A549 cells = test: Inhibition of LPS-induced inflammatory cytokine gene expression, RT-PCR, A549 cells; assay type: cell-based, human; conditions: 5 μg/ml LPS, peptide 10, 50, 100, 500 μM, 3 hours, RT-PCR (FIG. 2)
Experimental: A549 cells (human alveolar basal epithelial cells) were seeded at 3×10^5 cells/well in a 6-well plate and used in the experiment. After culturing for 1 day with a culture medium containing 10% FBS, the culture medium was replaced with a culture medium without containing FBS to induce starvation for 4 hours. A normal group without being treated with any substances, a group treated with 5 μg/ml of LPS (Sigma Aldrich) (negative control group), groups treated with 5 μg/ml of LPS and the peptide of Production Example 1 (10, 50, 100, 500 μM), and a group treated with 5 μg/ml of LPS and 10 μM of Dexamethasone (DEX) (positive control group) were treated with active substances and drugs respectively, and then RNA was extracted after 3 hours to carry out RT-PCR. RNA was extracted from the A549 cells in the above-described treatment group using an easy-BLUE™ Total RNA extraction kit (Qiagen, Germany). The extracted RNA was converted into cDNA with RT-PCR premix (iNtRON Biotechnology, Seongnam, Korea). After preparing a reaction mixture with PCR premix (iNtRON Biotechnology, Seongnam, Korea) and primers for each gene, PCR was carried out using a PCR machine (Eppendorf, Germany). Next, the mRNA expression pattern was determined by agarose gel electrophoresis. The base sequences of the primers used in the experiment are listed in [Table 2] below.

MRC-5 cells [2] = test: Inhibition of LPS-induced inflammatory cytokine gene expression, RT-PCR, MRC-5 cells; assay type: cell-based; conditions: 5 μg/ml LPS, peptide 10, 50, 100, 500 μM, 24 hours, RT-PCR (FIG. 1)
Experimental: MRC-5 cells (lung fibroblast cells) were seeded at 3×10^5 cells/well in a 12-well plate and used in the experiment. After culturing for 1 day with a culture medium containing 10% FBS, the culture medium was replaced with a culture medium without containing FBS to induce starvation for 4 hours. A normal group without being treated with any substances, a group treated with 5 μg/ml of LPS (Sigma Aldrich) (negative control group), groups treated with 5 μg/ml of LPS and the peptide of Production Example 1 (10, 50, 100, 500 μM), and a group treated with 5 μg/ml of LPS and 10 μM of Dexamethasone (DEX) (positive control group) were treated with active substances and drugs respectively, and then RNA was extracted after 24 hours to carry out RT-PCR. RNA was extracted from MRC-5 cells using an easy-BLUE™ Total RNA extraction kit (Qiagen, Germany). The extracted RNA was converted into cDNA with RT-PCR premix (iNtRON Biotechnology, Seongnam, Korea). After preparing a reaction mixture with PCR premix (iNtRON Biotechnology, Seongnam, Korea) and primers for each gene, PCR was carried out using a PCR machine (Eppendorf, Germany). Next, the mRNA expression pattern was determined by agarose gel electrophoresis. The base sequences of the primers used in the experiment are listed in [Table 2] below.

For “KYLLVHRPYYRR [peptide of Production Example 1]”, the “expression level of IL-6 (ELISA)” value (MRC-5 cells [1]) was “decreased the expression levels of IL-6 and IL-8 in a concentration-dependent manner”, the “expression level of IL-8 (ELISA)” value (MRC-5 cells [1]) was “decreased the expression levels of IL-6 and IL-8 in a concentration-dependent manner” and the “number of macrophages in bronchoalveolar lavage fluid” value (BALB/c mice) was “not increased or decreased”. For the same sequence, the “number of neutrophils in bronchoalveolar lavage fluid” value (BALB/c mice) was “significantly reduced the increased number of neutrophils in a concentration-dependent manner”, the “gene expression of COX-2” value (A549 cells) was “decreases in a concentration-dependent manner” and the “gene expression of IL-1β” value (A549 cells) was “decreases in a concentration-dependent manner”. For the same sequence, the “gene expression of IL-6” value (A549 cells) was “decreases in a concentration-dependent manner”, the “gene expression of IL-8” value (A549 cells) was “decreases in a concentration-dependent manner” and the “gene expression of TNF-α” value (A549 cells) was “decreases in a concentration-dependent manner”. The “gene expression of IL-1β” value (MRC-5 cells [2]) was “decreases in a concentration-dependent manner”, the “gene expression of IL-6” value (MRC-5 cells [2]) was “decreases in a concentration-dependent manner” and the “gene expression of IL-8” value (MRC-5 cells [2]) was “decreases in a concentration-dependent manner”. The “gene expression of TNF-α” value (MRC-5 cells [2]) was “decreases in a concentration-dependent manner”.
